# Assay results: ChEMBL document CHEMBL1122740, “Bicyclic lactam inhibitors of angiotensin converting enzyme” (J Med Chem, 1984)
# “And” between values parts separate entries of the source, which are not always exact repeats. Equal values may be shown once.
# Target: T1, Angiotensin-converting enzyme (Oryctolagus cuniculus, UniProt P12822)
# T1 sequence (P12822 whole entry): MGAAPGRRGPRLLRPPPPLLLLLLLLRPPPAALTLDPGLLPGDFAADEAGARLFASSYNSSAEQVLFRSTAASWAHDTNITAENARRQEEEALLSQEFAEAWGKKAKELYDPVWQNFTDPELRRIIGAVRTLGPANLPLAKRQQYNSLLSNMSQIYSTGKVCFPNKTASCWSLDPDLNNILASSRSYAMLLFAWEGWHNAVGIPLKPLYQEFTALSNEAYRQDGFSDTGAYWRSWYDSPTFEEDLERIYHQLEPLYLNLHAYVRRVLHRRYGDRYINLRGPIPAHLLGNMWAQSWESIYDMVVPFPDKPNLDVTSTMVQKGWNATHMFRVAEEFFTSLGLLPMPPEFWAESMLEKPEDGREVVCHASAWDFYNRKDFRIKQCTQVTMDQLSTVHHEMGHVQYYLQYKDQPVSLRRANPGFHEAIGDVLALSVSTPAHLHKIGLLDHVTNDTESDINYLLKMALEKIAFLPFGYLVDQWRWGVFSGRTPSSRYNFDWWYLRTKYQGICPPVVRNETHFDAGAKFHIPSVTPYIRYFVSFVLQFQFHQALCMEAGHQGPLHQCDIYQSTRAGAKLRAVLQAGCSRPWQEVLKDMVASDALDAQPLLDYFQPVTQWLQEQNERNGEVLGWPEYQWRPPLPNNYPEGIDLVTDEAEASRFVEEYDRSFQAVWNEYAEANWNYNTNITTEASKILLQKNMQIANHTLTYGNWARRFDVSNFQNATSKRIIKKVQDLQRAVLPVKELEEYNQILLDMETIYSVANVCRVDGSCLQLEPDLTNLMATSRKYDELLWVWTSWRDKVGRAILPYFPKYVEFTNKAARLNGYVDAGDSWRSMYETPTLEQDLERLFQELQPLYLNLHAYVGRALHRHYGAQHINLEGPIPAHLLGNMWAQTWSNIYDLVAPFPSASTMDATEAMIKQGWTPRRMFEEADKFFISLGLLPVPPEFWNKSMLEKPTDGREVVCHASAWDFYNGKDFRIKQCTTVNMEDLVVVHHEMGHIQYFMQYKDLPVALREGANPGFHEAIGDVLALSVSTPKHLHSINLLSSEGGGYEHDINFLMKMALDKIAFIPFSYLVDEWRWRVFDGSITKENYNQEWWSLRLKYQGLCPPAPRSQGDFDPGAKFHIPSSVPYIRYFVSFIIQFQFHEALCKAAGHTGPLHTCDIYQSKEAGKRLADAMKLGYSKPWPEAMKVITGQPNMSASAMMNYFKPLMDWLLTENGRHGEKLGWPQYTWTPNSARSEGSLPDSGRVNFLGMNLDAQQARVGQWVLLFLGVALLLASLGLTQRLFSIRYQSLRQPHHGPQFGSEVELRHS
# Assay: Ability to inhibit Angiotensin I converting enzyme was determined
row,IC50,Structure (SMILES)
1,0.004 µM,O=C(O)CN1C(=O)C(CS)CCCc2ccccc21 (stereo not given)
2,0.17 µM,O=C(O)CN1CCCCC(CS)C1=O (stereo not given)

# More lines, now with the values behind:
row,Structure (SMILES),IC50
1,O=C(O)CN1C(=O)C(CS)CCc2ccccc21 (stereo not given),0.009 µM
2,O=C(O)CN1CCCC(CS)C1=O (stereo not given),1.5 µM and 3.4 µM
3,CC(C(=O)O)N1CCCCCC(CS)C1=O (stereo not given),0.053 µM
